# Assay results reported in patent US20250134855A1, “CO[…] AND METHODS OF USING SAME” (LYKOS THERAPEUTICS, INC., priority 2022, published 2025).
# Test: Population PK (PPK) model of MDMA and MDA (NONMEM)
# Design: species or system human
# From the text: This example describes the methodology that was used to characterize the PPK of MDMA and its active minor metabolite MDA and the related model-based simulations.
# For the PPK analysis, an individual was defined as evaluable if the following criteria were satisfied: • 1. Received at least one dose of MDMA • 2. Had at least one measurable MDMA observation with associated sampling time and dosing information for the MDMA modeling • 3. Had at least one measurable paired MDMA/MDA observation with associated sampling time and dosing information for the MDMA modeling
# The evaluation of the impact of covariates on the MDMA and MDA PPK models focused on the most clinically relevant covariates. Prior to covariate selection, a correlation matrix was generated to determine the correlation between covariates. Only the most significant covariate among the highly correlated covariates was included in the model.
# Software Nonlinear mixed-effects modeling software (NONMEM®; version 7.4; ICON, Hanover, MD, US), a software package for nonlinear mixed-effects analysis was used for the PPK modeling. R (version 4.0.2) was used for simulations (e.g., to derive exposure measures for subsequent model application analysis).
# Algorithms for the Development of the Population PK Model Plasma concentration-time data was analyzed using a nonlinear mixed effects modeling approach. The first-order conditional estimation method of NONMEM with interaction (FOCE INTER) was used for PPK model development.
# One-, and two-compartment models were evaluated for MDMA based on the shape of the observed concentration-time profile. MDMA absorption was evaluated in two ways: as a first-order process and as a sequential zero-order process followed by first-order absorption. MDA was developed as a sequential model, with one-, two, and three-compartment models tested.
# They were modeled assuming a log-normal distribution as given by the following expression: θki=θk×e^ηk^i where θki denotes the k^th parameter value for the i^th patient, θk denotes the typical parameter value, and ηki denotes the inter-individual random effect for the i^th patient—assumed to have mean of 0 (zero) and variance ωk^2. Collectively, the vector of random effects (across the parameters indexed by k) has the covariance matrix Ω. Covariance matrix structures including diagonal and blocked diagonal structures were evaluated after the completion of covariate model building. The residual error structure was assumed to follow an additive, proportional, or combined additive and proportional error model described by the following:
# The subset of covariate-parameter relationships to be included was selected based on exploratory graphical analysis, mechanistic plausibility, and scientific and clinical interest. […] This was either the covariate with the strongest influence as determined by exploratory graphical analysis or the variable that is most meaningful from a clinical, biological, or practical perspective. Continuous covariates were preferred over categorized covariates with the same meaning.
# However, graphical covariate analysis can be relied on only if n-shrinkage in the respective population model parameters is low. Covariates that fulfilled the above criteria were tested in a stepwise process. The covariate selection was performed using a forward addition process followed by backward elimination. The likelihood ratio test was used to evaluate the significance of incorporating or removing fixed effects into the population model based on significance levels that were set a priori. For forward addition and backward elimination, significance levels of 0.01 and 0.001 were employed, respectively. The improvement of the model relative to the base model was compared after each of the covariates was added univariately, and the model with the largest improvement was kept for the next evaluation step, given that there was an overall statistical significance supporting the inclusion of the respective covariate. […]
# [1] = MPXF (N =16), population parameter, IIV not included
# [2] = 5th percentile of body weight (52 kg)
# [3] = 95th percentile of body weight (97 kg)
compound,measurement,setting,value
"CC(N)Cc1ccc2c(c1)OCO2 (stereo not shown) [MDA, 3,4-methylenedioxyamphetamine]","MDA Clearance, CLM, post hoc Geo. mean",MPXF (N =16),29.7 L/h
same,"MDA Intercompartmental Clearance, QM, post hoc Geo. mean",MPXF (N =16),68.4 L/h
same,"MDA Central Volume, V3",[1],20.8 L
same,"CLM, base model estimate",base MDA model,35.6 L/h
same,IIV on CLM,base MDA model,37.7
same,IIV on QM,base MDA model,55.8
same,IIV on V4,base MDA model,43.5
same,"V3, base model estimate",base MDA model,19.4 L
same,lower V4 (MDA peripheral volume of distribution),female compared to male subjects,18%
same,"Body weight effect on CLM, Bootstrap median",final MDA model,0.585
same,"Body weight effect on CLM, estimate",final MDA model,0.580
same,"Body weight effect on QM, Bootstrap median",final MDA model,1.02
same,"Body weight effect on QM, estimate",final MDA model,1.00
same,"CLM, Bootstrap median",final MDA model,83.9 L/h
same,"CLM, final model estimate",final MDA model,79.6 L/h
same,"Sex effect on V4, Bootstrap median",final MDA model,−0.18
same,"V4, Bootstrap median",final MDA model,213 L
same,"V4, final model estimate",final MDA model,213 L
"CNC(C)Cc1ccc2c(c1)OCO2 (stereo not shown) [MDMA, 3,4-methylenedioxymethamphetamine]",higher MDMA AUC0-44 relative to reference individual,[2],30%
same,higher MDMA Cmax relative to reference individual,[2],30%
same,lower MDMA AUC0-44 relative to reference individual,[3],28%
same,lower MDMA Cmax relative to reference individual,[3],25%
same,"Cmax MDMA, post hoc Geo. mean",MPKF Fasted 120 mg (N = 16),246.0 ng/mL
same,"Cmax MDMA, post hoc Geo. mean",MPKF Fed 120 mg (N = 14),197.3 ng/mL
same,"Post Hoc Absorption Rate, Geo. mean (Geo. CV %)","MPKF Fed (N = 14), high fat meal",0.6 (50.2) 1/h
same,"Post Hoc Absorption Rate, Geo. mean (Geo. CV %)",MPKT Fasted (N = 16),3.5 (47.0) 1/h
same,"Duration of zero order absorption, D1, post hoc Geo. mean",MPXF (N =16),0.4 h
same,"Half-life MDMA, t½, post hoc Geo. mean",MPXF (N =16),8.7 h
same,"MDMA Apparent Volume of Distribution, V, post hoc Geo. mean",MPXF (N =16),368.3 L
same,"Lag time, ALAG",[1],0.3 h
same,time to complete clearance (5 half-lives),assumed,38.5 to 43.5 h
same,"ALAG1, base model estimate",base MDMA model,0.312 h
same,"CL/F, base model estimate",base MDMA model,38.3 L/h
same,"D1, base model estimate",base MDMA model,0.242 h
same,IIV on D1,base MDMA model,159
same,IIV on Ka,base MDMA model,55.9
same,IIV on V2/F,base MDMA model,28.5
same,"V2/F, base model estimate",base MDMA model,444 L
same,"ka, base model estimate",base MDMA model,1.14 h⁻¹
same,"ALAG1, Bootstrap median",final MDMA model,0.323 h
same,"ALAG1, final model estimate",final MDMA model,0.322 h
same,"Body weight effect on V2/F, Bootstrap median",final MDMA model,0.884
same,"Body weight effect on V2/F, estimate",final MDMA model,0.885
same,"CL/F, Bootstrap median",final MDMA model,41.8 L/h
same,"CL/F, final model estimate",final MDMA model,41.5 L/h
same,"D1, Bootstrap median",final MDMA model,0.271 h
same,"D1, final model estimate",final MDMA model,0.304 h
same,"Fasted status effect on KA, Bootstrap median",final MDMA model,1.08
same,"Fasted status effect on KA, estimate",final MDMA model,1.93
same,"Fed status effect on KA, Bootstrap median",final MDMA model,−0.496
same,"Fed status effect on KA, estimate",final MDMA model,−0.484
same,IIV on D1,final MDMA model,153
same,IIV on KA,final MDMA model,60.2
same,IIV on V2/F,final MDMA model,19.9
same,"Study effect on V2/F, Bootstrap median",final MDMA model,−0.267
same,"Study effect on V2/F, estimate",final MDMA model,−0.263
same,"V2/F, Bootstrap median",final MDMA model,461 L
same,"V2/F, final model estimate",final MDMA model,462 L
same,"ka, Bootstrap median",final MDMA model,1.17 h⁻¹
same,"ka, final model estimate",final MDMA model,1.17 h⁻¹
same,lower Ka,subjects fed a high fat diet,49%
